# Measurements as given in patent US12173018B2, “Penicillin-binding protein inhibitors” (priority 2018, dated 2024).
# Structures can show the parent of a compound that is named as a salt. Where two headings read alike, the source gives them in different places.
# How the values were obtained:
# [1] = molecular target: E. coli PBP1b (Escherichia coli (strain K12), UniProt P02919); experiment: Radioligand competition binding assay with 14C-labeled boronic acid probe, PBP1b
# From the text: To determine the ability of boronic acid-based test PBP inhibitors to bind Penicillin Binding Proteins (PBPs), a radio-labelled boronic acid PBP inhibitor
# [drawing 751] was used in competition binding assays to determine boronic acid PBP inhibitor binding to PBP1a or PBP1b from Escherichia coli. PBP1a and PBP1b were purified as described previously (Bertsche, U.; et al., J. Biol. Chem. 2005, 280 (45), 38096-38101; Born, P.; et al., J. Biol. Chem. 2006. 281 (37), 26985-26993). To establish assay conditions for competition binding, an enzyme titration/saturation binding experiment was performed. Saturation binding was performed in a buffer comprised of 20 mM Tris (pH 7.5), 500 mM NaCl and 0.1% (v/v) TritonX-100, with PBP1a/PBP1b at a final concentration of 0.1 μM and Compound A at final concentrations ranging from 0-100 μM. Mixtures were incubated for 60 minutes, then applied to Zeba Spin Desalting columns or plates (ThermoFisher Scientific) and centrifuged at 1000-1500×g for 2 minutes. The flow through, containing PBP bound with Compound A, was recovered and 100 μL mixed with 5 mL of UltimaGold liquid scintillation cocktail (Perkin Elmer), and the radioactivity counted using a Beckman Coulter LS 6500 Multipurpose scintillation counter. PBP binding of Compound A approached saturation at 20 μM of ^14C-labeled probe. The competition binding assay was validated using the beta-lactam ampicillin, with Compound A at a final concentration of 20 μM, PBP1a/PBP1b at a final concentration of 0.1 μM. PBP1a/PBP1b was incubated with ampicillin in a 96-well microplate for 60 minutes, then Compound A was added and the mixtures incubated for an additional 60 minutes. The mixtures were then applied to Zeba Spin desalting plates and centrifuged at 1000×g for 2 minutes. The flow through was recovered and 100 μl mixed with 5 ml of UltimaGold liquid scintillation cocktail and the radioactivity counted. […] Binding assays with boronic acid PBP inhibitors were performed in an identical fashion. The potency of boronic acid PBP inhibitors was reported as the EC50 value.
# [2] = molecular target: E. coli PBP3 (Escherichia coli (strain K12), UniProt P0AD68); experiment: E. coli PBP3 Bocillin-FL fluorescence polarization competition binding assay
# How it was run: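 Competition against 0.1 μM Bocillin-FL for binding to 1.5 μM purified protein, read by fluorescence polarization for 60 min. Compounds tested from 0 to 1000 μM; EC50 taken as the concentration reducing probe binding.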
# [3] = system: engineered strain of Escherichia coli harboring CTX-M15; experiment: microbe, parasite or virus in culture; format: cell-based; conditions: Escherichia coli, read-out: Microbiological Activity (MIC in mg/L), E. coli DH5α/pLBII-CTX-M15, engineered strain producing CTX-M15
# [4] = fluorescence polarization competition binding with Bocillin-FL, read-out: E. coli K12 PBP3 Potency
# Sequence of E. coli PBP3 (P0AD68 whole entry): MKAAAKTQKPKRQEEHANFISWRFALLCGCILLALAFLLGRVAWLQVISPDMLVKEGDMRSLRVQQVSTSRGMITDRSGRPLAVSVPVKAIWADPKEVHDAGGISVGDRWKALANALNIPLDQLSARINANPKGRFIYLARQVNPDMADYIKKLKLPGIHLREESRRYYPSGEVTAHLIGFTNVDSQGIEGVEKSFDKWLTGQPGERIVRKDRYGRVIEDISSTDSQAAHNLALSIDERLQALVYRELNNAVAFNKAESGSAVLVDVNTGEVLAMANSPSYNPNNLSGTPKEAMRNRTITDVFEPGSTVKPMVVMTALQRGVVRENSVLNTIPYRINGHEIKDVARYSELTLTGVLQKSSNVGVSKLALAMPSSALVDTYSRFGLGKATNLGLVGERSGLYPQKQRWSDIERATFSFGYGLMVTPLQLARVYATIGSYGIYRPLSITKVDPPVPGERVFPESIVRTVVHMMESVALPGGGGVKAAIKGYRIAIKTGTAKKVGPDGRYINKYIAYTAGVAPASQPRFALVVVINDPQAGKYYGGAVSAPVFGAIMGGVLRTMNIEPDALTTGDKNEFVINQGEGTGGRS
# Sequence of E. coli PBP1b (P02919 whole entry): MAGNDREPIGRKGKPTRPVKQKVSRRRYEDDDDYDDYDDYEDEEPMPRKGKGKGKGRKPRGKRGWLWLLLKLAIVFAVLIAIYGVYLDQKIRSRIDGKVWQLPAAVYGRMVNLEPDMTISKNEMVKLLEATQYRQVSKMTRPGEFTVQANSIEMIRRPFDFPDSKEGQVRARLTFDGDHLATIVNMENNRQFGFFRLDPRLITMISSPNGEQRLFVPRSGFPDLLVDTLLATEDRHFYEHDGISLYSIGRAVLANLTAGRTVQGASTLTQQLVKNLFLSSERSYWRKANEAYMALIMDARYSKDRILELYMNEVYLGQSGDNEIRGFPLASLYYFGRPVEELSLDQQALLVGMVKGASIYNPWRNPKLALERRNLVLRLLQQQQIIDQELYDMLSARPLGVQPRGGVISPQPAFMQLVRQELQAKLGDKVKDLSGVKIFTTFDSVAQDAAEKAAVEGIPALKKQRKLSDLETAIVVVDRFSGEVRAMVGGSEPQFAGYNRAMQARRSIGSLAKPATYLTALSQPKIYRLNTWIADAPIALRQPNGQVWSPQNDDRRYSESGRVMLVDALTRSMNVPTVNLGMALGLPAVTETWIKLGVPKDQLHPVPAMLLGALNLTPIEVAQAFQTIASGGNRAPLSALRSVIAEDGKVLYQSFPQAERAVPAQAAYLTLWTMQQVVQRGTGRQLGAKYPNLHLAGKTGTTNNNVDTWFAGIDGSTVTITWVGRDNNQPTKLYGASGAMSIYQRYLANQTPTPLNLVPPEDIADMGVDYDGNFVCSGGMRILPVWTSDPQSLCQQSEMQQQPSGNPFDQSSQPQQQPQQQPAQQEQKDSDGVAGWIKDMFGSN
Structure (SMILES),EC50 [1] [µM],EC50 [2] [µM],MIC [3] [mg/L],"EC50 [2, 4] [µM]"
"CCN1CCN(C(=O)NC(C(=O)N[C@H]2Cc3cccc(C(=O)O)c3OB2O)c2cnn(C)c2)C(=O)C1=O (stereo partly drawn) [Example 60, (3R)-3-(2-(4-ethyl-2,3-dioxopiperazine-1-carboxamido)-2-(1-methyl-1H-pyrazol-4-yl)acetamido)-2-hydroxy-3,4-dihydro-2H-benzo[e][1,2]oxaborinine-8-carboxylic acid]",10 to 100,30 to 500,32 to 64,–
"CCN1CCN(C(=O)N[C@H](C(=O)N[C@H]2Cc3cccc(C(=O)O)c3OB2O)C2(CO)CC2)C(=O)C1=O [Example 63, (R)-3-((S)-2-(4-ethyl-2,3-dioxopiperazine-1-carboxamido)-2-(1-(hydroxymethyl)cyclopropyl)acetamido)-2-hydroxy-3,4-dihydro-2H-benzo[e][1,2]oxaborinine-8-carboxylic acid]",< 10,–,128 to 256,> 500
"CCN1CCN(C(=O)NC(C(=O)N[C@H]2Cc3cccc(C(=O)O)c3OB2O)c2ccc(CCN)cc2)C(=O)C1=O (stereo partly drawn) [Example 64, (3R)-3-(2-(4-(2-aminoethyl)phenyl)-2-(4-ethyl-2,3-dioxopiperazine-1-carboxamido)acetamido)-2-hydroxy-3,4-dihydro-2H-benzo[e][1,2]oxaborinine-8-carboxylic acid]",10 to 100,–,128 to 256,> 500
"CCN1CCN(C(=O)NC(C(=O)N[C@H]2Cc3cccc(C(=O)O)c3OB2O)c2ccc(O)nc2Cl)C(=O)C1=O (stereo partly drawn) [Example 67, (3R)-3-(2-(2-chloro-6-hydroxypyridin-3-yl)-2-(4-ethyl-2,3-dioxopiperazine-1-carboxamido)acetamido)-2-hydroxy-3,4-dihydro-2H-benzo[e][1,2]oxaborinine-8-carboxylic acid]",10 to 100,30 to 500,128 to 256,–
"CCN1CCN(C(=O)NC(CNS(N)(=O)=O)C(=O)N[C@H]2Cc3cccc(C(=O)O)c3OB2O)C(=O)C1=O (stereo partly drawn) [Example 68, (3R)-3-(2-(4-ethyl-2,3-dioxopiperazine-1-carboxamido)-3-(sulfamoylamino)propanamido)-2-hydroxy-3,4-dihydro-2H-benzo[e][1,2]oxaborinine-8-carboxylic acid]",< 10,–,32 to 64,> 500
"CCN1CCN(C(=O)NC(CNC(C)=O)C(=O)N[C@H]2Cc3cccc(C(=O)O)c3OB2O)C(=O)C1=O (stereo partly drawn) [Example 69, (3R)-3-(3-acetamido-2-(4-ethyl-2,3-dioxopiperazine-1-carboxamido)propanamido)-2-hydroxy-3,4-dihydro-2H-benzo[e][1,2]oxaborinine-8-carboxylic acid]",< 10,–,128 to 256,> 500
"CCN1CCN(C(=O)NC(C(=O)N[C@H]2Cc3cccc(C(=O)O)c3OB2O)C2CCN(CC(=O)O)CC2)C(=O)C1=O (stereo partly drawn) [Example 72, (3R)-3-(2-(1-(carboxymethyl)piperidin-4-yl)-2-(4-ethyl-2,3-dioxopiperazine-1-carboxamido)acetamido)-2-hydroxy-3,4-dihydro-2H-benzo[e][1,2]oxaborinine-8-carboxylic acid, trifluoroacetic acid salt]",< 10,30 to 500,128 to 256,–
"CCN1CCN(C(=O)N[C@H](CNCC(=O)O)C(=O)N[C@H]2Cc3cccc(C(=O)O)c3OB2O)C(=O)C1=O [Example 73, (R)-3-((R)-3-((carboxymethyl)amino)-2-(4-ethyl-2,3-dioxopiperazine-1-carbox-amido)propanamido)-2-hydroxy-3,4-dihydro-2H-benzo[e][1,2]oxaborinine-8-carboxylic acid, trifluoroacetic acid salt]",> 100,–,128 to 256,> 500
"CCN1CCN(C(=O)NC(C(=O)N[C@H]2Cc3cccc(C(=O)O)c3OB2O)c2ccc(OCCO)cc2)C(=O)C1=O (stereo partly drawn) [Example 74, (3R)-3-(2-(4-ethyl-2,3-dioxopiperazine-1-carboxamido)-2-(4-(2-hydroxyethoxy)phenyl)acetamido)-2-hydroxy-3,4-dihydro-2H-benzo[e][1,2]oxaborinine-8-carboxylic acid]",> 100,30 to 500,128 to 256,–
"CCN1CCN(C(=O)NC(C(=O)N[C@H]2Cc3cccc(C(=O)O)c3OB2O)C2CCN(S(N)(=O)=O)CC2)C(=O)C1=O (stereo partly drawn) [Example 77, (3R)-3-(2-(4-ethyl-2,3-dioxopiperazine-1-carboxamido)-2-(1-sulfamoylpiperidin-4-yl)acetamido)-2-hydroxy-3,4-dihydro-2H-benzo[e][1,2]oxaborinine-8-carboxylic acid]",< 10,30 to 500,128 to 256,–
"CCN1CCN(C(=O)NC(C(=O)N[C@H]2Cc3cccc(C(=O)O)c3OB2O)C2CN(S(N)(=O)=O)C2)C(=O)C1=O (stereo partly drawn) [Example 78, (3R)-3-(2-(4-ethyl-2,3-dioxopiperazine-1-carboxamido)-2-(1-sulfamoylazetidin-3-yl)acetamido)-2-hydroxy-3,4-dihydro-2H-benzo[e][1,2]oxaborinine-8-carboxylic acid]",> 100,–,128 to 256,–
"CCN1CCN(C(=O)N[C@@H](CNS(C)(=O)=O)C(=O)N[C@H]2Cc3cccc(C(=O)O)c3OB2O)C(=O)C1=O [Example 84, (R)-3-((S)-2-(4-ethyl-2,3-dioxopiperazine-1-carboxamido)-3-(methylsulfonamido)propanamido)-2-hydroxy-3,4-dihydro-2H-benzo[e][1,2]oxaborinine-8-carboxylic acid]",< 10,30 to 500,128 to 256,–
"CCN1CCN(C(=O)NC(C(=O)N[C@H]2Cc3cccc(C(=O)O)c3OB2O)c2ccc(O)cc2Cl)C(=O)C1=O (stereo partly drawn) [Example 88, (3R)-3-(2-(2-chloro-4-hydroxyphenyl)-2-(4-ethyl-2,3-dioxopiperazine-1-carboxamido)acetamido)-2-hydroxy-3,4-dihydro-2H-benzo[e][1,2]oxaborinine-8-carboxylic acid]",< 10,–,128 to 256,< 30
"CCN1CCN(C(=O)N[C@@H](C(=O)N[C@H]2Cc3cccc(C(=O)O)c3OB2O)C2CCN(C(=N)N)CC2)C(=O)C1=O [Example 91, (R)-3-((R)-2-(1-carbamimidoylpiperidin-4-yl)-2-(4-ethyl-2,3-dioxopiperazine-1-carboxamido)acetamido)-2-hydroxy-3,4-dihydro-2H-benzo[e][1,2]oxaborinine-8-carboxylic acid]",< 10,> 500,128 to 256,–
"CCN1CCN(C(=O)NC(C(=O)N[C@H]2Cc3cccc(C(=O)O)c3OB2O)C2CCS(=O)(=O)C2)C(=O)C1=O (stereo partly drawn) [Example 123, (3R)-3-(2-(1,1-dioxidotetrahydrothiophen-3-yl)-2-(4-ethyl-2,3-dioxopiperazine-1-carboxamido)acetamido)-2-hydroxy-3,4-dihydro-2H-benzo[e][1,2]oxaborinine-8-carboxylic acid]",> 100,–,–,> 500
"CCN1CCN(C(=O)NC(C(=O)N[C@H]2Cc3cccc(C(=O)O)c3OB2O)c2ccc(C)cn2)C(=O)C1=O (stereo partly drawn) [Example 127, (3R)-3-(2-(4-ethyl-2,3-dioxopiperazine-1-carboxamido)-2-(5-methylpyridin-2-yl)acetamido)-2-hydroxy-3,4-dihydro-2H-benzo[e][1,2]oxaborinine-8-carboxylic acid]",> 100,–,–,> 500
"CCN1CCN(C(=O)NC(C(=O)N[C@H]2Cc3cccc(C(=O)O)c3OB2O)C(Cl)CCCO)C(=O)C1=O (stereo partly drawn) [Example 129, (3R)-3-(3-chloro-2-(4-ethyl-2,3-dioxopiperazine-1-carboxamido)-6-hydroxyhexanamido)-2-hydroxy-3,4-dihydro-2H-benzo[e][1,2]oxaborinine-8-carboxylic acid]",> 100,–,–,> 500
"CCN1CCN(C(=O)NC(C(=O)N[C@H]2Cc3cccc(C(=O)O)c3OB2O)c2ccc(N)cn2)C(=O)C1=O (stereo partly drawn) [Example 132, (3R)-3-(2-(5-aminopyridin-2-yl)-2-(4-ethyl-2,3-dioxopiperazine-1-carboxamido)acetamido)-2-hydroxy-3,4-dihydro-2H-benzo[e][1,2]oxaborinine-8-carboxylic acid]",10 to 100,–,–,< 30
